This note sets out measurements from PMC11406361, “Several orphan solute carriers functionally identified as organic cation transporters: Substrates specificity compared with known cation transporters” (The Journal of Biological Chemistry, 2024).

The test has as its target SLC35G3 (Homo sapiens, UniProt Q8N808). The test can be described thus: Uptake ratio screen, SLC35G3-overexpressing HEK293 over empty vector cells. Type of test: cell-based. On the set-up: by amplifying the entire gene-of-interest within the HEK293 genome via a long-range PCR.
[1] abbreviates: 2.5 μM substrate, 2 min, HEK293.

Like-named read-outs stand apart in the source and are kept apart here. Peptide text beside a SMILES is read from it.

Chain of SLC35G3 (Q8N808 whole entry): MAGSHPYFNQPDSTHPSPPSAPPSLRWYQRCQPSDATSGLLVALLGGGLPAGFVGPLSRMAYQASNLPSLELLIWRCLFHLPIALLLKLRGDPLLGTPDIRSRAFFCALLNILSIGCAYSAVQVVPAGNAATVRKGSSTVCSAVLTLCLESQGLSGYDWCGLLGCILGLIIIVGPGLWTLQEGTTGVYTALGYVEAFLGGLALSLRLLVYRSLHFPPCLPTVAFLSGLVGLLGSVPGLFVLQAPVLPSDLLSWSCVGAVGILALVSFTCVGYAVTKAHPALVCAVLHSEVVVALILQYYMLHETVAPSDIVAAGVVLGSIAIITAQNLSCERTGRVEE

For the compound `COc1ccc2c3c1O[C@H]1C(=O)CC[C@H]4[C@@H](C2)N(C)CC[C@]314` [Hydrocodone], the “Uptake data for SLC35G3, mean value (fold-increase over empty vector control)” value under setting [1] amounted to 1.71.

As to `COc1c(N2C[C@@H]3CCCN[C@@H]3C2)c(F)cc2c(=O)c(C(=O)O)cn(C3CC3)c12` [Moxifloxacin], the “Uptake data for SLC35G3, mean value (fold-increase over empty vector control)” value under setting [1] was determined as 1.34.

Regarding `C[C@H]1COc2c(N3CCN(C)CC3)c(F)cc3c(=O)c(C(=O)O)cn1c23` [Levofloxacin], under setting [1], the “Uptake data for SLC35G3, mean value (fold-increase over empty vector control)” value was determined as 1.05.

For the compound `NC1Cc2cc3c(cc2C1)OCO3` [MDAI, 5,6-Methylenedioxy-2-aminoindane], the “Uptake data for SLC35G3, mean value (fold-increase over empty vector control)” value under setting [1] stood at 1.71.

With `COC(=O)[C@H](Cc1ccccc1)NC(=O)[C@@H](N)CC(=O)O` [Aspartame] (H-Asp-Phe-OMe), the “Uptake data for SLC35G3, mean value (fold-increase over empty vector control)” value under setting [1] is on record as 0.92.

Consider `CCN(C)C(=O)Oc1cccc([C@H](C)N(C)C)c1` [Rivastigmine], for which the “Uptake data for SLC35G3, mean value (fold-increase over empty vector control)” value under setting [1] worked out at 1.65.

On to `C[N+]1(CC2CC2)CC[C@]23c4c5ccc(O)c4O[C@H]2C(=O)CC[C@@]3(O)[C@H]1C5` (stereo partly drawn) [Methylnaltrexon], for which, under setting [1], the “Uptake data for SLC35G3, mean value (fold-increase over empty vector control)” value is listed as 1.36.

As to `CN(C)CCC=C1c2ccccc2CCc2ccccc21` [Amitriptyline], under setting [1], the “Uptake data for SLC35G3, mean value (fold-increase over empty vector control)” value is 1.47.

Take `C[N+](C)(C)CC(=O)O` [Betaine]: under setting [1], the “Uptake data for SLC35G3, mean value (fold-increase over empty vector control)” value came out at 0.84.

Take `O=C1CCc2ccc(OCCCCN3CCN(c4cccc(Cl)c4Cl)CC3)cc2N1` [Aripiprazole]: under setting [1], the “Uptake data for SLC35G3, mean value (fold-increase over empty vector control)” value was 1.22.

Turning to `Cc1cccc(C)c1NC(=O)C1CCCCN1C` (stereo not drawn) [Mepivacaine], the “Uptake data for SLC35G3, mean value (fold-increase over empty vector control)” value under setting [1] amounted to 2.30.

As to `C[C@H]1c2cccc(O)c2C(=O)C2=C(O)[C@]3(O)C(=O)C(C(N)=O)=C(O)[C@@H](N(C)C)[C@@H]3[C@@H](O)[C@@H]21` [Doxycycline], the “Uptake data for SLC35G3, mean value (fold-increase over empty vector control)” value under setting [1] is recorded as 1.34.

Take `COc1ccccc1N1CCN(CCCNc2cc(=O)n(C)c(=O)n2C)CC1` [Urapidil]: under setting [1], the “Uptake data for SLC35G3, mean value (fold-increase over empty vector control)” value is given as 1.37.

On to `CN(C)CCOC(C)(c1ccccc1)c1ccccn1` (stereo not drawn) [Doxylamine], for which, under setting [1], the “Uptake data for SLC35G3, mean value (fold-increase over empty vector control)” value is on record as 1.10.

With `CNCC[C@@H](Oc1ccccc1C)c1ccccc1` [Atomoxetine], the “Uptake data for SLC35G3, mean value (fold-increase over empty vector control)” value under setting [1] came to 1.26.

Regarding `NC(=O)C1(N2CCCCC2)CCN(CCCC(=O)c2ccc(F)cc2)CC1` [Pipamperone], the “Uptake data for SLC35G3, mean value (fold-increase over empty vector control)” value under setting [1] came to 1.33.

In the case of `CNCC(c1ccc(OC)cc1)C1(O)CCCCC1` (stereo not drawn) [N-Desmethylvenlafaxine], the “Uptake data for SLC35G3, mean value (fold-increase over empty vector control)” value under setting [1] amounted to 1.20.

Regarding `C=CCN1CC[C@]23c4c5ccc(O)c4O[C@H]2C(=O)CC[C@@]3(O)[C@H]1C5` [Naloxone], under setting [1], the “Uptake data for SLC35G3, mean value (fold-increase over empty vector control)” value is 2.01.

As to `CCOc1ccccc1OCCN[C@H](C)Cc1ccc(OC)c(S(N)(=O)=O)c1` [Tamsulosin], the “Uptake data for SLC35G3, mean value (fold-increase over empty vector control)” value under setting [1] was 1.39.

On to `O=C1c2cccc3c2[C@H](CCC3)CN1[C@@H]1CN2CCC1CC2` [Palonosetron], for which, under setting [1], the “Uptake data for SLC35G3, mean value (fold-increase over empty vector control)” value is 1.36.

For the compound `COc1ccc(C(CN(C)C)C2(O)CCCCC2)cc1` (stereo not drawn) [Venlafaxine], the “Uptake data for SLC35G3, mean value (fold-increase over empty vector control)” value under setting [1] was 1.60.

As for `CNCC[C@H](Oc1cccc2ccccc12)c1cccs1` [Duloxetine], the “Uptake data for SLC35G3, mean value (fold-increase over empty vector control)” value was 1.26.

For `CCOC(=O)[C@]1(c2ccccc2)CCC=C[C@H]1NC` [Nortilidine], the “Uptake data for SLC35G3, mean value (fold-increase over empty vector control)” value under setting [1] was 2.87.

Consider `COc1ccc2c3c1O[C@H]1C[C@@H](O)C=C[C@@]31CCN(C)C2` [Galantamine], for which the “Uptake data for SLC35G3, mean value (fold-increase over empty vector control)” value under setting [1] came to 1.57.

`CC(CN(C)C)CN1c2ccccc2CCc2ccccc21` (stereo not drawn) [Trimipramine]: the “Uptake data for SLC35G3, mean value (fold-increase over empty vector control)” value under setting [1] stood at 1.47.

`CC[C@@H](CO)NCCN[C@@H](CC)CO` [Ethambutol]: the “Uptake data for SLC35G3, mean value (fold-increase over empty vector control)” value under setting [1] is 0.99.

For the compound `COCCn1c2c([n+](Cc3cnccn3)c1C)C(=O)c1ccccc1C2=O` [YM155], the “Uptake data for SLC35G3, mean value (fold-increase over empty vector control)” value under setting [1] is reported as 1.11.

On to `C#CCN[C@@H]1CCc2ccccc21` [Rasagiline], for which, under setting [1], the “Uptake data for SLC35G3, mean value (fold-increase over empty vector control)” value is 1.90.

Consider `CNCCCN1c2ccccc2CCc2ccccc21` [Desipramine], for which the “Uptake data for SLC35G3, mean value (fold-increase over empty vector control)” value under setting [1] turned out to be 1.31.

For the compound `COc1cc2nc(N3CCN(C(=O)C4CCCO4)CC3)nc(N)c2cc1OC` (stereo not drawn) [Terazosin], under setting [1], the “Uptake data for SLC35G3, mean value (fold-increase over empty vector control)” value is on record as 1.49.

With `OC(CCN1CCCCC1)(c1ccccc1)C1CC2C=CC1C2` (stereo not drawn) [Biperiden], the “Uptake data for SLC35G3, mean value (fold-increase over empty vector control)” value under setting [1] came to 1.50.

Consider `Cc1nc2n(c(=O)c1CCN1CCC(c3noc4cc(F)ccc34)CC1)CCCC2` [Risperidone], for which the “Uptake data for SLC35G3, mean value (fold-increase over empty vector control)” value under setting [1] is recorded as 1.41.

Turning to `NCC1(CC(=O)O)CCCCC1` [Gabapentin], the “Uptake data for SLC35G3, mean value (fold-increase over empty vector control)” value under setting [1] is 0.90.

On to `CN(C)CCCN1c2ccccc2CCc2ccccc21` [Imipramine], for which the “Uptake data for SLC35G3, mean value (fold-increase over empty vector control)” value under setting [1] came out at 1.40.

For `CC(CCc1ccc(O)cc1)NCCc1ccc(O)c(O)c1` (stereo not drawn) [Dobutamine], the “Uptake data for SLC35G3, mean value (fold-increase over empty vector control)” value under setting [1] is given as 1.58.

`C[C@@H](O)[C@H]1C(=O)N2C(C(=O)O)=C(S[C@@H]3CN[C@H](C(=O)N(C)C)C3)[C@H](C)[C@H]12` [Meropenem]: under setting [1], the “Uptake data for SLC35G3, mean value (fold-increase over empty vector control)” value came out at 1.27.

In the case of `CC12CC3CC(C)(C1)CC(N)(C3)C2` [Memantine], under setting [1], the “Uptake data for SLC35G3, mean value (fold-increase over empty vector control)” value is listed as 1.19.

Turning to `CCN1CCCC1CNC(=O)c1cc(S(=O)(=O)CC)c(N)cc1OC` (stereo not drawn) [Amisulpride], the “Uptake data for SLC35G3, mean value (fold-increase over empty vector control)” value under setting [1] came out at 1.53.

For the compound `C=C1CC[C@@]2(O)[C@H]3Cc4ccc(O)c5c4[C@@]2(CCN3CC2CC2)[C@H]1O5` [Nalmefen], under setting [1], the “Uptake data for SLC35G3, mean value (fold-increase over empty vector control)” value is 1.99.

For the compound `N[C@@H]1CON=C1O` [Cycloserine (L-), Cycloserine], the “Uptake data for SLC35G3, mean value (fold-increase over empty vector control)” value under setting [1] was 1.11.

Regarding `CC(C)(C)c1ccc(C(O)CCCN2CCC(C(O)(c3ccccc3)c3ccccc3)CC2)cc1` (stereo not drawn) [Terfenadine], the “Uptake data for SLC35G3, mean value (fold-increase over empty vector control)” value under setting [1] was 1.28.

In the case of `CCN(CC)C(=O)C1(c2ccccc2)CC1CN` (stereo not drawn) [Milnacipran], the “Uptake data for SLC35G3, mean value (fold-increase over empty vector control)” value under setting [1] amounted to 1.31.

As to `CNC[C@H](O)c1cccc(O)c1` [Phenylephrine], the “Uptake data for SLC35G3, mean value (fold-increase over empty vector control)” value under setting [1] turned out to be 1.10.

With `O=C(CCCN1CCC(O)(c2ccc(Cl)cc2)CC1)c1ccc(F)cc1` [Haloperidol], the “Uptake data for SLC35G3, mean value (fold-increase over empty vector control)” value under setting [1] was found to be 1.47.

For `CN(C)CCc1c[nH]c2ccc(C[C@H]3COC(=O)N3)cc12` [Zolmitriptan], under setting [1], the “Uptake data for SLC35G3, mean value (fold-increase over empty vector control)” value was found to be 1.27.

Regarding `CC(C)NCC(O)COc1ccc(COCCOC(C)C)cc1` (stereo not drawn) [Bisoprolol], under setting [1], the “Uptake data for SLC35G3, mean value (fold-increase over empty vector control)” value is given as 1.24.

On to `COCCOC(=O)C1=C(C)NC(C)=C(C(=O)OC(C)C)C1c1cccc([N+](=O)[O-])c1` (stereo not drawn) [Nimodipine], for which the “Uptake data for SLC35G3, mean value (fold-increase over empty vector control)” value under setting [1] stood at 1.26.

On to `CC(Cc1ccc(O)cc1)NCC(O)c1cc(O)cc(O)c1` (stereo not drawn) [Fenoterol], for which the “Uptake data for SLC35G3, mean value (fold-increase over empty vector control)” value under setting [1] is reported as 1.19.

For `COc1cc(Cc2cnc(N)nc2N)cc(OC)c1OC` [Trimethoprim], the “Uptake data for SLC35G3, mean value (fold-increase over empty vector control)” value under setting [1] is on record as 1.24.

In the case of `N[C@@H]1CON=C1O` [Cycloserine (D-), Cycloserine], the “Uptake data for SLC35G3, mean value (fold-increase over empty vector control)” value under setting [1] is recorded as 0.93.

Turning to `CC(C)NCC(O)COc1cccc2ccccc12` (stereo not drawn) [Propranolol], the “Uptake data for SLC35G3, mean value (fold-increase over empty vector control)” value under setting [1] was 1.27.

Take `COCCc1ccc(OCC(O)CNC(C)C)cc1` (stereo not drawn) [Metoprolol]: the “Uptake data for SLC35G3, mean value (fold-increase over empty vector control)” value under setting [1] is listed as 1.52.

As for `C=CCN1C[C@H](C(=O)N(CCCN(C)C)C(=O)NCC)C[C@@H]2c3cccc4[nH]cc(c34)C[C@H]21` [Cabergoline], the “Uptake data for SLC35G3, mean value (fold-increase over empty vector control)” value under setting [1] came to 1.49.

On to `COc1ccc2c(c1)N(C[C@H](C)CN(C)C)c1ccccc1S2` [Levomepromazine], for which the “Uptake data for SLC35G3, mean value (fold-increase over empty vector control)” value under setting [1] amounted to 1.30.

For `CC(NC(C)(C)C)C(=O)c1cccc(Cl)c1` (stereo not drawn) [Bupropion], the “Uptake data for SLC35G3, mean value (fold-increase over empty vector control)” value under setting [1] was 1.29.

Turning to `CCN(CC)CCNC(=O)c1cc(Cl)c(N)cc1OC` [Metoclopramide], under setting [1], the “Uptake data for SLC35G3, mean value (fold-increase over empty vector control)” value is on record as 1.44.

On to `COc1ccc(OC)c(C(O)CNC(=O)CN)c1` (stereo not drawn) [Midodrine], for which the “Uptake data for SLC35G3, mean value (fold-increase over empty vector control)” value under setting [1] was 1.33.

Regarding `N[C@@H]1C[C@H]1c1ccccc1` (racemic) [Tranylcypromine], the “Uptake data for SLC35G3, mean value (fold-increase over empty vector control)” value under setting [1] stood at 2.56.

`COc1cc(CCN)cc(OC)c1OC` [Mescaline]: the “Uptake data for SLC35G3, mean value (fold-increase over empty vector control)” value stood at 1.34.

`COc1ccc(CN(CCN(C)C)c2ccccn2)cc1` [Pyrilamine]: the “Uptake data for SLC35G3, mean value (fold-increase over empty vector control)” value under setting [1] was determined as 1.74.

`NCCc1ccc(O)cc1` [Tyramine]: the “Uptake data for SLC35G3, mean value (fold-increase over empty vector control)” value under setting [1] stood at 1.61.

For the compound `C[C@H](N)[C@@H](O)c1ccccc1` [Cathine ((+)-Norpseudoephedrine), (+)-Norpseudoephedrine], the “Uptake data for SLC35G3, mean value (fold-increase over empty vector control)” value is recorded as 1.21.

Regarding `CCCCN1CCCCC1C(=O)Nc1c(C)cccc1C` (stereo not drawn) [Bupivacaine], the “Uptake data for SLC35G3, mean value (fold-increase over empty vector control)” value under setting [1] was 2.44.

Take `OCCOCCN1CCN(C2=Nc3ccccc3Sc3ccccc32)CC1` [Quetiapine]: the “Uptake data for SLC35G3, mean value (fold-increase over empty vector control)” value under setting [1] came out at 1.37.

Turning to `CN[C@@H]1CCc2[nH]c3ccc(C(N)=O)cc3c2C1` [Frovatriptan (R-), Frovatriptan], the “Uptake data for SLC35G3, mean value (fold-increase over empty vector control)” value under setting [1] stood at 1.06.

Turning to `O=C1CC2(CCCC2)CC(=O)N1CCCCN1CCN(c2ncccn2)CC1` [Buspirone], the “Uptake data for SLC35G3, mean value (fold-increase over empty vector control)” value under setting [1] is recorded as 1.72.
